Ends that are not written are not given here. Peptide text beside a SMILES is read from it. * marks the point of attachment. Cbz = O=C(OCc1ccccc1)*

Data set [1] concerns CAPNS1 protein in HEK293T cells ectopically expressing WFS2. Description: CAPNS1 protein level after proteasome inhibition. In kind it is cell-based. The following applies: 2 μM. The protocol: To find out whether WFS2 regulates CAPNS1 stability through the ubiquitin-proteasome pathway, HEK293T cells ectopically expressing WFS2 were treated with a proteasome inhibitor, MG132 (2 μM), and then the CAPNS1 protein level was measured.

Another data set deals with INS-1 823/13 cells. The data set is described as follows: Small-scale screen for prevention of thapsigargin mediated cell death, caspase 3/7-Glo luminescence. The following applies: pretreated 24 hours, then 2 nM thapsigargin overnight. In kind it is cell-based, rat. Here is the method:
INS-1 823/13 cells were pretreated with DMSO or drugs for 24 hours the incubated in media containing 2 nM of thapsigargin (TG) overnight. Apoptosis was detected by caspase 3/7-Glo luminescence. […] These eight compounds were PARP Inhibitor, dantrolene sodium, NS398, rapamycin, pioglitazone, calpain inhibitor III, docosahexaenoic acid (DHA), and GLP-1 (FIG. 8A).

For data set [2], the system named is INS-1 832/13 cells transfected with WFS2 siRNA. Description: WFS2-knockdown mediated cell death, cleaved caspase-3 immunoblotting. In kind it is cell-based, rat. As to conditions: β cell line; 5 μM for 24 hours, 24 hours post-transfection. Here is the method:
(§1) Neuro2a and MIN6 cells were transfected with siRNA against WFS2 or a control scrambled siRNA (Cont.). After 36 hours post-transfection, cells were untreated or treated with 100 μM calpeptin for 12 hours. Cleaved caspase 3 and actin levels were assessed by immunoblotting (FIG. 5A, left panel). Quantified levels of cleaved caspase-3 are shown in FIG. 5A, right panel (n=3, *P<0.05). Additionally, early stage apoptosis was monitored by Annexin V staining followed by flow cytometry, FIG. 5C. INS-1 832/13 cells were transfected with scrambled siRNA and WFS2 siRNA. After 24 hours post-transfection, cells were untreated or treated with 5 μM calpeptin for 24 hours. Cleaved caspase-3, WFS2, and actin levels were monitored by immunoblotting (FIG. 5D, left panel) and quantified (FIG. 5D, right panel) (n=3, *P<0.05).
For orientation: In western blotting, separated proteins are transferred to a membrane and probed.

Data set [3] has as its system Neuro2a cells transfected with siRNA against WFS2. The data set is described as follows: WFS2-knockdown mediated cell death, cleaved caspase 3 immunoblotting and Annexin V staining. The data set is classed as cell-based, mouse. The following applies: neuronal cell line; 100 μM for 12 hours, 36 hours post-transfection. Here is the method:
Flow cytometry analyses (FACS) were performed with LSRII Flow Cytometer (BD Biosciences, San Jose, Calif.) at the FACS core facility of Washington University School of Medicine Neural progenitor cells or NSC34 cells were plated in 24-well plates. After staining with Annexin V, cells were washed and resuspended in PBS. Cells were run using standard protocols, specifically Annexin V positive cell (i.e., apoptotic cells). The results were analyzed by FlowJo ver.7.6.3 (Ashland, Oreg.).
as §1

The test system of data set [4] is MIN6 cells transfected with siRNA against WFS2. The data set is described as follows: WFS2-knockdown mediated cell death, cleaved caspase 3 immunoblotting. As to conditions: β cell line; 100 μM for 12 hours, 36 hours post-transfection. In kind it is cell-based, rodent. The protocol: as §1
Data set [5] concerns INS-1 832/13 cells transfected with WFS2 siRNA. Description: Cell death mediated by WFS2 knockdown, cleaved caspase-3 immunoblotting. The data set is classed as cell-based, rat. As to conditions: 10 μM for 24 hours, 24 hours post transfection. Here is the method:
(§2) In to determine if danotrolene affects ER calcium homeostasis, cells were treated with ryanodine or dantrolene. INS-1 832/13 cells were transfected with scrambled siRNA or WRFS1 siRNA. After 24 hours post-transfection, cells were untreated or treated with 2 μM ryanodine for 24 hours. Cleaved caspase-3, WFS1, and GAPDH levels were monitored by immunoblotting (FIG. 10A, left panel) and quantified ([…], right panel). INS-1 832/13 cells (FIG. 10B) and NSC34 cells (FIG. 10C) were transfected with scrambled siRNA or WRFS2 siRNA. After 24 hours post transfection, cells were untreated or treated with 10 μM dantrolene for 24 hours. Cleaved caspase-3, WFS2, and GAPDH levels were monitored by immunoblotting.

For data set [6] the following is noted: cited from earlier work.
For the next data set, the system named is INS-1 832/13 cells. The data set is described as follows: Cytoplasmic calcium levels by Fura-2 calcium indicator. The following applies: 10 μM for 24 hours. The data set is classed as cell-based, rat. Here is the method: (§3) First, the question of whether dantrolene could decrease cytoplasmic calcium levels was tested. […] and NSC34 cells were untreated or treated with 10 μM dantrolene for 24 hours. Cytoplasmic calcium levels were measured by Fura-2 calcium indicator over a period of 5 minutes. Thapsigargin (1 μM) was added at time 0. […] Next, it was necessary to determine if dantrolene could restore cytosolic calcium levels in WFS1-deficient cells.

In data set [7] the test system is WFS1 silenced INS-1 832/13 cells. Description: Protection of WFS1 silenced cells, immunoblotting of cleaved caspase-3 and cleaved spectrin. In kind it is cell-based, rat. The following applies: 10 μM for 48 hours. Here is the method:
In order to determine whether dantrolene conferred protection in WFS1 deficient cells and WFS1 silenced INS-1 832/13 cells were treated with dantrolene. INS-1 832/13 cells were transfected with scrambled siRNA or siRNA directed against WFS1. Cells were untreated or treated with 10 μM dantrolene for 48 hours, then incubated in media containing 0.5 μM thapsigargin for 6 hours. Expression levels of cleaved caspase-3 under untreated and thapsigargin treated conditions (FIG. 9A, left panel) were quantified and shown in FIG. 9A, center and right panels (n=3, *P<0.05). Protein levels of cleaved spectrin, WFS1, and GAPDH were analyzed by immunoblotting (FIG. 9B, left panel) and quantified (FIG. 9B, right panel) (n=3, *P<0.05). […]

In data set [8] the test system is ER-localized ryanodine receptors. As to conditions: previous studies; cited from earlier work.
The test system of data set [9] is NSC34 cells transfected with WFS2 siRNA. The data set is described as follows: Cell death mediated by WFS2 knockdown, cleaved caspase-3 immunoblotting. In kind it is cell-based. The following applies: 10 μM for 24 hours, 24 hours post transfection. The protocol:
as §2

A further data set concerns INS1E cells. The data set is described as follows: ER stress- and cytokine-induced β cell death, caspase 3/7 activity assay. The following applies: 100 nM.
The next data set has as its system NSC34 cells. Description: Cytoplasmic calcium levels by Fura-2 calcium indicator. In kind it is cell-based. The following applies: 10 μM for 24 hours. The protocol:
as §3

Data set [10] relates to WFS1-knockdown NSC34 cells. The data set is described as follows: Protection of WFS1-knockdown cells, immunoblotting of cleaved caspase-3 and cleaved spectrin. In kind it is cell-based. As to conditions: 10 μM for 24 hours. Here is the method: NSC34 cells were transfected with scrambled siRNA or siRNA directed against WFS1, then untreated or treated with 10 μM dantrolene for 24 hours.

Data set [11] has as its system neural progenitor cells derived from iPS cells of a Wolfram syndrome subject. Description: Thapsigargin-induced cell death in patient neural progenitor cells, cleaved caspase-3 immunoblotting. The following applies: pretreated 10 μM for 48 hours, then 0.125 μM thapsigargin for 20 hours.
From the text: To generate iPS cells, fibroblasts were obtained from non-affected controls and subjects with Wolfram syndrome. […] To generate neural progenitor cells, iPSCs were counted and plated ˜50,000 per well in a 96-well plate to form uniform embryoid bodies. After 5 days, embryoid bodies were suspended in neural induction media and replated as adherent cultures. Fresh media was applied every day for 7 days. Neural rosettes formed in these cultures were selected and plated. Plated rosettes were fed with neural induction media every day for 4-7 days to obtain neural progenitor cells.
Wolfram patient neural progenitor cells were pretreated with or without 10 μM dantrolene for 48 hours.
The test system of data set [12] is INS-1 832/13 cells expressing D1ER. The data set is described as follows: ER calcium monitoring with D1ER (FRET/CFP ratio, FACS). The data set is classed as cell-based, rat. The following applies: various concentrations, dose-dependent manner. The text has this: A β cell line was developed to monitor ER calcium levels under various conditions. The ER-localized calcium sensor D1ER was modified to contain two fluorescent proteins, CFP and YFP, which were inserted onto the N- and C-terminus, respectively. INS-1 832/13 cells were transfected with the modified D1ER calcium sensor. When Ca^2+ binds to the calmodulin, an intramolecular rearrangement occurs and brings CFP and YFP into close proximity resulting in a fluorescence resonance energy transfer (FRET) from CFP to YFP. The FRET signal allows ratiometric measurements of free ER Ca^2+ and changes in Ca^2+ using FRET/CFP ratio.
INS-1 832/13 cells that stably express D1ER were treated with digitonin and ethylene glycol tetraacetic acid (EGTA) which causes the minimum value of FRET/CFP ratio, FIG. 10F. Additionally, cells treated with digitonin and CaCl2 led to the maximum value of FRET/CFP ratio, FIG. 10F.
FRET/CFP ratio was decreased in INS-1 832/13 cells treated with thapsigargin in a dose-dependent manner (FIG. 10G). Additionally, the rates of ER calcium-depleted cells increased in cells treated with thapsigargin in a dose-dependent manner (FIG. 10G).

In data set [13] the test system is ER stress-mediated cell death. The following applies: have been shown (references); cited from earlier work.
Where [14] appears, read: thapsigargin 1 μM added at time 0, Fura-2 over 5 minutes.

From the text for INS1E cells: A Caspase 3/7 assay (Promega, Madison, Wis.) was utilized to measure caspase-3 and -7 activities in various cell lines. The assay provides a proluminescent caspase-3/7 substrate, which contains the tetrapeptide sequence DEVD. This caspase-3/7 substrate can be added directly to cell lysates. The substrate is cleaved to release a aminoluciferin, which is a substrate for luciferase used in the production of light. The signal is proportional to caspase-3/7 activity.

On to `CC(C)C[C@@H](C=O)NC(=O)[C@H](CC(C)C)NC(=O)[C@H](CC(C)C)NC(=O)OCc1ccccc1` [MG132] (Cbz-Leu-Leu-Leu-aldehyde), for which, in data set [1], the CAPNS1 protein level result was “stabilized CAPNS1 protein”.

Consider `CS(=O)(=O)Nc1ccc([N+](=O)[O-])cc1OC1CCCCC1` [NS398], for which the “suppression of thapsigargin mediated cell death (apoptosis by caspase 3/7-Glo luminescence)” value (from here on “suppression”) in the data set on INS-1 823/13 cells (10 μM (Table 3)) is reported as “significantly suppress thapsigargin mediated cell death”.

For the compound `CC(C)[C@H](NC(=O)OCc1ccccc1)C(=O)N[C@H](C=O)Cc1ccccc1` [calpain inhibitor III] (Cbz-Val-Phe-aldehyde), the “suppression” value with INS-1 823/13 cells (1 μM (Table 3)) is reported as “significantly suppress thapsigargin mediated cell death”.

With `CCCC[C@@H](C=O)NC(=O)[C@H](CC(C)C)NC(=O)OCc1ccccc1` [calpeptin], the “WFS2-knockdown mediated cell death” value in data set [2], in data set [3] and in [4] was “prevented WFS2-knockdown mediated cell death” in each case.

As for `O=C1CN(/N=C/c2ccc(-c3ccc([N+](=O)[O-])cc3)o2)C(O)=N1` [dantrolene, 1-[[5-(4-nitrophenyl)-2-furyl]methylideneamino]imidazolidine-2,4-dione], the “cell death mediated by WFS2 knockdown” value in data set [5] and in data set [9] was “did not block cell death mediated by WFS2 knockdown” in each case. Besides, in [6], the solubility in water entry was “poorly soluble in water”. In addition, the cytosolic calcium levels entry in the data set on INS-1 832/13 cells (setting [14]) and with NSC34 cells (setting [14]) was “decreased cytosolic calcium levels” in each case. Further, the “cytosolic calcium levels in WFS1-knockdown cells” value in the data set on INS-1 832/13 cells (WFS1-knockdown INS-1 832/13 cells) and in the data set with NSC34 cells (WFS1-knockdown NSC34 cells) was “restored cytosolic calcium levels” each time. The “calpain activity (cleaved spectrin)” value in data set [7] (then 0.5 μM thapsigargin for 6 hours) is “suppression of apoptosis and calpain activity”. For the same compound, the “apoptosis (cleaved caspase-3)” value in data set [7] (then 0.5 μM thapsigargin for 6 hours or untreated) is “suppression of apoptosis”. Further, in data set [8], the “leakage of calcium from the ER to the cytosol” value is recorded as “suppresses leakage of calcium from the ER to the cytosol”. Further, the “cytokine induced β cell death” value in the data set on INS1E cells (inflammatory cytokine 50 ng/mL) was “prevented”. Also, the “thapsigargin-induced β cell death” value with INS1E cells (thapsigargin 10 nM for 24 hours) was “prevented”. Moreover, in data set [10], the “calpain activation (cleaved spectrin)” value is “prevented calpain activation”. In data set [10], the “cell death (cleaved caspase-3)” value was “prevented calpain activation and cell death”. Further, the “thapsigargin-induced cell death (cleaved caspase-3)” value in [11] was “could prevent cell death”. Besides, in the data set with INS-1 823/13 cells (10 μM (Table 3)), the “suppression” value was “significantly suppress thapsigargin mediated cell death”.

Consider `C/C=C(/C)C(=O)O[C@H]1C(C)=C2[C@H]([C@@H]1OC(=O)CCCCCCC)[C@@](C)(OC(C)=O)C[C@H](OC(=O)CCC)[C@@]1(O)[C@H]2OC(=O)[C@@]1(C)O` [thapsigargin], for which, in [12], the “FRET/CFP ratio (ER calcium)” value is reported as “decreased” and the “rates of ER calcium-depleted cells” value is reported as “increased”.

“GLP-1: Glucagon-like peptide-1; FDA approved drug (HAEGTFTSDVSSYLEGQAAKEFIAWLVKGR; ends and bridges not checked; UniProt P01275 98-127, looked up)”: the “protection against ER stress-mediated cell death” value in [13] is given as “confer protection against ER stress-mediated cell death”. In addition, the “suppression” value in the data set with INS-1 823/13 cells (50 nM (Table 3)) is reported as “significantly suppress thapsigargin mediated cell death”.
